How the values were obtained:
[1] = Concentration studies: stability of pyruvic acid solutions in water at higher concentrations; format: physicochemical; details: each of the concentrations of Table 2; light for 6-weeks; about 22° C. to about 26° C.
Protocol: Each of these commercial solutions were subjected to light for 6-weeks at temperatures ranging from about 22° C. to about 26° C. At each of the concentrations listed below, it was discovered that the pyruvic acid solutions were stable.

[2] = cited from earlier work
[3] = Shelf storage stability of [1-13C] pyruvic acid in water, 1H and 13C NMR spectra compared; format: physicochemical; details: 0.025M in water; for Storage stability, Duration 12 weeks / Storage stability, Duration 17 weeks: NMR; for Shelf stability (NMR spectra unchanged): each of the samples, all conditions of Table 1
Protocol: Samples of isotopically labeled [1-^13C] pyruvic acid, having Formula VI and synthesized as discussed immediately below, were subjected to various conditions as depicted in Table 1, in order to establish the compound's shelf storage stability.
The resulting [1-^13C] pyruvic acid was tested as follows in Table 1:
^1H and ^13C NMR spectra of the distilled [1-^13C] pyruvic acid in water (0.025M) were acquired at the onset of the study and prior to exposing the samples to the various conditions specified in Table 1. ^1H and ^13C NMR spectra were again acquired for each of the samples after being exposed to the aforementioned conditions on a weekly basis for 12-weeks. The spectra acquired after exposure were compared visually and appeared to remain unchanged as compared with the spectra acquired prior to exposure, i.e. the spectra were as expected for [1-^13C] pyruvic acid in water. As such, it was concluded that each of the samples were shelf stable. Similarly, ^1H and ^13C NMR spectra acquired after 17-weeks of exposure remained unchanged as compared with the spectra acquired prior to exposure.

[4] = Sample 3, Room temperature (about 22° C. to about 26° C.), Dark
[5] = Sample 4, Room temperature (about 22° C. to about 26° C.), Light

| SMILES | Stability of solutions in water [1] | Solubility in water [2] | Storage stability, Duration 12 weeks ([3]; Sample 1, −10° C., Dark) | Storage stability, Duration 17 weeks ([3]; Sample 1, −10° C., Dark) | Storage stability, Duration 12 weeks ([3]; Sample 2, 4° C., Dark) | Storage stability, Duration 17 weeks ([3]; Sample 2, 4° C., Dark) | Storage stability, Duration 12 weeks [3, 4] | Storage stability, Duration 17 weeks [3, 4] | Storage stability, Duration 12 weeks [3, 5] | Storage stability, Duration 17 weeks [3, 5] | Shelf stability (NMR spectra unchanged) ([3]; after 17-weeks) | Shelf stability (NMR spectra unchanged) ([3]; weekly for 12-weeks) |
| --- | --- | --- | --- | --- | --- | --- | --- | --- | --- | --- | --- | --- |
| CC(=O)C(=O)O [Pyruvic acid, 2-oxopropanoic acid, reference compound] | stable | soluble |  |  |  |  |  |  |  |  |  |  |
| CC(=O)[13C](=O)O [[1-^13C] pyruvic acid] |  |  | Stable | Stable | Stable | Stable | Stable | Stable | Stable | Stable | shelf stable | shelf stable |

Reference: patent US7754913B2, “Synthesis of isotopically labeled alpha-keto acids and esters” (Cambridge Isotope Laboratories, Inc., priority 2006, dated 2010)
